In the assay the test system is rabbits with acute pulmonary hypertension.

Turning to `CCCCC[C@H](O)/C=C/[C@@H]1[C@@H](C/C=C\CCCC(=O)O)[C@H]2CO[C@@H]1C2` [U46619], for the setting “anesthetized rabbits, continuous infusion over 60 mins, RVSP increased from baseline 14±2 mmHg”, the “right ventricular systolic pressure (RVSP) after U46619 infusion” value is recorded as 28-30 mmHg.
With `[N]=O` [NO, nitric oxide], the “RVSP at one min after breathing NO” value (electrically generated NO (20, 40 or 80 ppm) produced on inspiration by prototype generator, 50% O2, RVSP 30 mmHg before NO breathing, FIG. 14) is reported as 24 mmHg.

The values above are taken from US11007503B2, “Systems and methods for a cooled nitric oxide generator” (The General Hospital Corporation, priority 2017, dated 2021).
